Laboratory results from article PMC6882489, “Design and synthesis of tricyclic terpenoid derivatives as novel PTP1B inhibitors with improved pharmacological property and in vivo antihyperglycaemic efficacy” (Journal of Enzyme Inhibition and Medicinal Chemistry, 2019).

Assays:
human PTP1B = biological target: T1, human PTP1B (Homo sapiens, UniProt P18031); experiment: PTP1B inhibition assay (pNPP substrate, UV absorption); type: biochemical; settings: for inhibition at 10 µM: PTP1B inhibition at 10 μM, performed in triplicate
T1 construct: purchased Sigma
T1 sequence (P18031 1-435): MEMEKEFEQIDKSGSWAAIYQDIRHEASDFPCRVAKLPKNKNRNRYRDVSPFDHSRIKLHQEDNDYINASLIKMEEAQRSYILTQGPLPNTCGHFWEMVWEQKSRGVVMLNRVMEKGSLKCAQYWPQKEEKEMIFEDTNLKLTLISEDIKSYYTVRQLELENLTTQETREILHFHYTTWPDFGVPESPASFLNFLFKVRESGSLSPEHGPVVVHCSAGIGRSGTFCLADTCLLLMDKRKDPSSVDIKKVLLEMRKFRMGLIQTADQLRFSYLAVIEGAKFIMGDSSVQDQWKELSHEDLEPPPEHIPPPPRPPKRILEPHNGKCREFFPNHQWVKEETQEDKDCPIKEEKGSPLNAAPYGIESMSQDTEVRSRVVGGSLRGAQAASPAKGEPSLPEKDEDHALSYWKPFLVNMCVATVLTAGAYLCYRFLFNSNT
Method: The inhibitory assay was performed using human PTP1B (purchased from Sigma) and p-nitrophenylphosphate (pNPP) as substrate by UV absorption. 400 nmol pNPP were dissolved in H2O and 48 μL of the solution was added to a 100 μL reaction. The indicated amount of synthetic compounds was diluted in DMSO at a concentration of 5 mM. The PTP1B was diluted in pH 7.2 buffer contained 50 mM HEPES, 3 mM dithiothreitol, 2 mM EDTA and 100 mM NaCl. About 50 μL PTP1B dilution was added, and the mixture incubated at 37 °C for 30 min. 1N NaOH was added to terminate the reaction. UV–Vis absorption was detected at 410 nm using a Tecan Infinite M1000 plate reader.

[1] = tested on: insulin-resistant HepG2 cells; experiment: Glucose uptake / glucose consumption in insulin-resistant HepG2 cells; type: cell-based, human; settings: HepG2 induced with 1.5 × 10^−5 mmol insulin for 36 h; compound 40 μM or rosiglitazone 10 μM for 24 h; glucose oxidase method
Method: To assess the insulin sensitisation, the cellular effect of these compounds on insulin-resistant human hepatoma HepG2 cells was performed. The concentration of insulin and induction time were screened to induce insulin resistance in HepG2 cells according to the reported method[41]^,[42] with some modification. As shown in Figure 4(A), treatment with above 1 × 10^−5 mmol of insulin reduced glucose uptake, whereas treatment with 6 × 10^−6 mmol of insulin enhanced glucose uptake. […] As shown in Figure 4(B), insulin resistance was induced in HepG2 cells at 36 h, and rosiglitazone can decrease the insulin resistance. […]
Figure 4. […] After incubation, glucose content in the culture medium was measured by glucose oxidase method. […]
HepG2 cells were grown in DMEM with 10% foetal bovine serum, […] of streptomycin, and 100 U/mL of penicillin, in a humidified atmosphere of 5% CO2 at 37 °C. […] After cultivation, the glucose content was determined by the glucose oxidase method (the glucose analysis kit was purchased from Rongsheng Biopharmaceutical Co., Ltd., Shanghai, China). […] The absorbance was measured at 506 nm using a microplate reader (SpectraMax i3x, Molecular Devices). The residual glucose concentration is expressed as AX/A0 × 5.55 mmol/L (AX: OD value of sample; A0: OD value of glucose standard solution).

NIDDM mice = type: in vivo; settings: for Antihyperglycaemic effect (plasma glucose): male Kunming mice, 100 mg/kg intraperitoneally, glucose at 0-4 h, n = 8
Method: The antihyperglycaemic effect of the compounds 15, 25 and C10a were evaluated on non-insulin dependent diabetes mellitus (NIDDM) mice. Nicotinamide and streptozotocin were administrated intraperitoneally to induce hyperglycaemia and the plasma glucose of mice raised over 4.5 mmol/L[45].
Figure 5. The antihyperglycaemic effect in NIDDM mice (n = 8). […] M group: NIDDM mice were treated with saline alone. Y group: NIDDM mice were treated with rosiglitazone.
During the experiment, the male Kunming mice with 25–30 g body weight were fasted but received water prior to induction of diabetes. 110 mg/kg of nicotinamide and 65 mg/kg of streptozotocin (Macklin in Biochemical Technology Co., Ltd., Shanghai, China) were dissolved in pH 4.5 citrate buffer and intraperitoneally administrated to induce NIDDM mice model. The mice were intraperitoneally administered with a compound or rosiglitazone (100 mg/kg) dissolved in saline containing 1% DMSO and 10% Tween 80. Hyperglycaemia was confirmed by a plasma glucose increase of more than 4.5 mmol/L measured by a blood glucose metre (Sinocare GA-3, Changsha, China). Glucose concentrations from the tail of the mice were measured at 0, 0.5, 1, 2, 3 and 4 h by the blood glucose metre. Calculate the percentage of blood glucose by using the following formula: variation of glycaemia% = (AX − A0)/A0 × 100% (AX: blood glucose at selected time; A0: initial blood glucose).

HepG2 cells = experiment: Cell viability in the MTT assay; type: cell-based, human; settings: 40 μM compound, 24 h
Method: Cell viability in the MTT assay
The toxicities of the compounds were evaluated by (3-(4, 5-dimethylthiazolyl-2)-2, 5-diphenyltetrazolium bromide) test. HepG2 cells were routinely grown in Dulbecco's Modified Eagle Medium (DMEM) supplemented with 10% (v/v) fetal bovine serum, streptomycin ([…]), and penicillin (100U/mL), in a humidified atmosphere of 95% air, 5% CO2 at 37°C. HepG2 cells were planked in a 96 well plate with a concentration of 1×10^4 cells/well and cultured in 37°C and 5%CO2 for 24 h. Then HepG2 cells were treated with 40 μM of the synthetic compound. HepG2 cells untreated were used as control. HepG2 cells were cultured in 37℃ and 5%CO2 for 24 h, the old medium was carefully removed and were cultured for another 4 h in MTT (0.5%) containing DMEM, then the medium was carefully removed. 150 µL/well dimethyl sulfoxide was added and oscillated gently to make crystal dissolved. The absorbance at 560 nm was measured using a microplate reader. The cell […]
Fig. S1. Cell viability in the MTT assay.
(1 picture or pasted object on this page, not shown here)

PTP1B = tested on: PTP1B; set-up: method as in PMID 20964318; settings: cited from earlier work

Row | SMILES | inhibition at 10 µM (human PTP1B) [%] | melting point [°C] | further results
1 | CC(C)(O)c1ccc2c(c1)CC[C@H]1[C@](C)(C(=O)O)CCC[C@]21C [Compound 3, 15-Hydroxydehydroabieta-18-oic acid] | 19 | 92 to 93 | 
2 | CCOC(=O)[C@]1(C)CCC[C@]2(C)c3ccc(C(C)(C)O)cc3CCC12 (stereo partly drawn) [Compound 4a, Ethyl 15-hydroxydehydroabietate] | 4 | 51 to 52 | 
3 | C[C@@]1(C(=O)O)CCC[C@]2(C)c3ccc(OCCOC(=O)c4ccccc4N)cc3CCC12 (stereo partly drawn) [Compound 28] |  | 126 to 127 | 
4 | C[C@@]1(C(=O)O)CCC[C@]2(C)c3ccc(OCCOC(=O)c4ccc5cc(C(=O)O)ccc5c4)cc3CCC12 (stereo partly drawn) [Compound 34] |  | 189 to 190 | 
5 | CC(C)C1=CC2=CCC3C(C)(CO)CCCC3(C)C2CC1 (stereo not drawn) [Compound 9] | 3 |  | 
6 | CC(C)C1=CC2=CCC3C(C)(C)CCCC3(C)C2CC1 (stereo not drawn) [Compound 11] | 0 |  | 
7 | Cc1ccc(S(=O)(=O)OCC2(C)CCCC3(C)C4CCC(C(C)C)=CC4=CCC23)cc1 (stereo not drawn) [Compound 10] | 2 | 67 to 68 | 
8 | C[C@@]1(C(=O)O)CCC[C@]2(C)c3ccc(OCCOC(=O)c4ccccc4C(=O)O)cc3CCC12 (stereo partly drawn) [Compound 15] |  | 72 to 73 | 
9 | CN(CCOc1ccc(CC2SC(=O)NC2=O)cc1)c1ccccn1 (stereo not drawn) [rosiglitazone] |  |  | Effect on glucose consumption / insulin-stimulated glucose uptake [1]: significantly decrease the insulin resistance and improve the glucose uptake; Antihyperglycaemic effect (plasma glucose) (NIDDM mice): significant antihyperglycaemic effect after 1 h
10 | C[C@@]1(C(=O)O)CCC[C@]2(C)c3ccc(O)cc3CCC12 (stereo partly drawn) [Compound 7, 13-hydroxy-8,11,13-podocarpatriene-1-carboxylic acid] | 1 | 101 to 102 | 
11 | CC1(C)CCC2(COC(=O)c3ccccc3C(=O)O)CCC3(C)C(=CCC4C5(C)CCC(=O)C(C)(C)C5CCC43C)C2C1 (stereo not drawn) [Compound C10a] |  |  | IC50 (human PTP1B; values from the text, quantity type not printed there (Table 2 is an image), read-out: PTP1B enzymatic inhibitory activities): 3.1 µM; Cytotoxicity (HepG2 cells): considerable cytotoxicity and High; Antihyperglycaemic effect (plasma glucose) (NIDDM mice): showed the antihyperglycaemic effect; Acute toxicity observations in treated mice (NIDDM mice; mouse, in vivo, ip): hydroabdomen, thrombus and tail necrosis; IC50 (PTP1B; previous work, read-out: PTP1B inhibition IC50): 3.12 µM; PTP1B inhibition, fold more than the parent compound OA (PTP1B; versus OA): 7.6 fold
12 | C[C@@]1(C(=O)O)CCC[C@]2(C)c3ccc(OCCOC(=O)c4ccccc4)cc3CCC12 (stereo partly drawn) [Compound 25] |  | 138 to 139 | 
13 | CC(C)(O)c1ccc2c(c1)CCC1C(C)(C)CCCC21C (stereo not drawn) [Compound 13, 15-Hydroxydehydroabietane] | 22 |  | 
14 | CC(C)(O)c1ccc2c(c1)CCC1[C@](C)(CO)CCC[C@]21C (stereo partly drawn) [Compound 5, 1-Hydroxylmethyl-15-hydroxydehydroabietate] | 0 |  | 
15 | CC1(C)CCCC2(C)c3ccc(O)cc3CCC12 (stereo not drawn) [Compound 14, 13-Hydroxy-8,11,13-podocarpatriene] | 15 | 145 to 146 | 
16 | CC(C)C1=CC2=CC[C@@H]3[C@](C)(CCC[C@@]3(C)C(=O)O)[C@H]2CC1 [Compound 1, abietic acid] | 35 |  | 
